# In US20240109903A1, “SUBSTITUTED HETEROCYCLES FOR TREATING CANCER” (Northwestern University, priority 2022, published 2024):
# Like-named read-outs stand apart in the source and are kept apart here.
# Assays:
# [1] = tested on: MV-4-11 acute myeloid leukemia cells; assay: CellTiter-Glo 2.0 cell viability, MV-4-11; format: cell-based; conditions: Homo sapiens
# In short: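 MV4-11 cells plated at 3,000 cells/well on pre-dispensed compounds and incubated 3 days at 37 °C, 5% CO2. Viability read as ATP-dependent luminescence with CellTiter-Glo 2.0 after 20 min at ambient temperature, followed by regression analysis.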
# full NCI 60 cell panel = assay: NCI 60 Cell One-dose screen; format: cell-based, human; conditions: single high dose 10^−5 M, NCI 60 panel
# Text: Compounds were submitted to the NCI 60 Cell screen and tested at a single high dose (10^−5 M) in the full NCI 60 cell panel (see the following reference for details of using NCI 60 human tumor cell lines for screening anticancer drugs: Shoemaker R H. The NCI60 human tumor cell line anticancer drug screen. Nature Rev Cancer 2006; 6: 813-23). The One-dose data is reported as a mean graph of the percent growth of treated cells. The number reported for the One-dose assay is growth relative to the no-drug control, and relative to the time zero number of cells. This allows detection of both growth inhibition (values between 0 and 100) and lethality (values less than 0). For example, a value of 100 means no growth inhibition. A value of 40 would mean 60% growth inhibition. A value of 0 means no net growth over the course of the experiment. A value of −40 would mean 40% lethality. A value of −100 means all cells are dead. FIGS. 1-8 show the mean graph of percent growth against the NCI-60 cell panel for NUCC-0226674, NUCC-0226679, NUCC-0226680, NUCC-0226683, NUCC-0226689, NUCC-0226694, NUCC-0226695, and NUCC-0226698.
# EKVX = assay: NCI 60 five-dose screen EKVX; format: cell-based; conditions: Homo sapiens; for CC50: read-out: LC50 (the source's name) (converted)
# HCT-116 = assay: NCI 60 five-dose screen HCT-116; format: cell-based; conditions: Homo sapiens; for CC50: read-out: LC50 (the source's name) (converted)
# HT29 = assay: NCI 60 five-dose screen HT29; format: cell-based; conditions: Homo sapiens
# KM12 = assay: NCI 60 five-dose screen KM12; format: cell-based; conditions: Homo sapiens; for CC50: read-out: LC50 (the source's name) (converted)
# SF-268 = assay: NCI 60 five-dose screen SF-268; format: cell-based; conditions: Homo sapiens; for CC50: read-out: LC50 (the source's name) (converted)
# SF-295 = assay: NCI 60 five-dose screen SF-295; format: cell-based; conditions: Homo sapiens; for CC50: read-out: LC50 (the source's name) (converted)
# SNB-19 = assay: NCI 60 five-dose screen SNB-19; format: cell-based; conditions: Homo sapiens; for CC50: read-out: LC50 (the source's name) (converted)
# SNB-75 = assay: NCI 60 five-dose screen SNB-75; format: cell-based; conditions: Homo sapiens; for CC50: read-out: LC50 (the source's name) (converted)
# SK-MEL-2 = assay: NCI 60 five-dose screen SK-MEL-2; format: cell-based; conditions: Homo sapiens; for CC50: read-out: LC50 (the source's name) (converted)
# UACC-257 = assay: NCI 60 five-dose screen UACC-257; format: cell-based; conditions: Homo sapiens; for CC50: read-out: LC50 (the source's name) (converted)
# UACC-62 = assay: NCI 60 five-dose screen UACC-62; format: cell-based; conditions: Homo sapiens; for CC50: read-out: LC50 (the source's name) (converted)
# OVCAR-5 = assay: NCI 60 five-dose screen OVCAR-5; format: cell-based; conditions: Homo sapiens; for CC50: read-out: LC50 (the source's name) (converted)
# OVCAR-8 = assay: NCI 60 five-dose screen OVCAR-8; format: cell-based; conditions: Homo sapiens; for CC50: read-out: LC50 (the source's name) (converted)
# NCI/ADR-RES = assay: NCI 60 five-dose screen NCI/ADR-RES; format: cell-based; conditions: Homo sapiens; for CC50: read-out: LC50 (the source's name) (converted)
# SK-OV-3 = assay: NCI 60 five-dose screen SK-OV-3; format: cell-based; conditions: Homo sapiens; for CC50: read-out: LC50 (the source's name) (converted)
# RXF 393 = assay: NCI 60 five-dose screen RXF 393; format: cell-based; conditions: Homo sapiens; for CC50: read-out: LC50 (the source's name) (converted)
# PC-3 = assay: NCI 60 five-dose screen PC-3; format: cell-based; conditions: Homo sapiens; for CC50: read-out: LC50 (the source's name) (converted)
# DU-145 = assay: NCI 60 five-dose screen DU-145; format: cell-based; conditions: Homo sapiens; for CC50: read-out: LC50 (the source's name) (converted)
# [2] = MV4-11, 72 h, MV-4-11 cells, 3 days, CellTiter-Glo 2.0, read-out: IC50 (uM) [Cell Type: MV-4-11]
# [3] = MV4-11, bound stated in text, read-out: IC50 against MV-4-11 acute myeloid leukemia cells
smiles,measurement,setting,value
COc1cc(Cn2c(C(F)(F)F)cc3c(Cl)ncnc32)ccn1 [NUCC-0226694],IC50,[1]; [2],0.999 µM
same,IC50,[1]; [3],< 2 µM
same,growth inhibition in the One-Dose Screen,full NCI 60 cell panel,significant growth inhibition
same,GI50,EKVX,7.94 µM
same,IC50,EKVX,17 µM
same,IC (TGI),EKVX,24 µM
same,CC50,EKVX,63.1 µM
same,GI50,HCT-116,1.74 µM
same,IC50,HCT-116,2.63 µM
same,IC (TGI),HCT-116,4.27 µM
same,CC50,HCT-116,15.1 µM
same,GI50,HT29; HT-29,14.1 µM
same,IC50,HT29; HT-29,21.9 µM
same,IC (TGI),HT29; HT-29,41.7 µM
same,CC50,"HT29; HT-29, read-out: LC50 (the source's name) (converted)",≥ 100 µM
same,GI50,KM12,13.5 µM
same,IC50,KM12,22.9 µM
same,IC (TGI),KM12,30.2 µM
same,CC50,KM12,69.2 µM
same,GI50,SF-268,2.45 µM
same,IC50,SF-268,4.57 µM
same,IC (TGI),SF-268,9.33 µM
same,CC50,SF-268,41.7 µM
same,GI50,SF-295,16.6 µM
same,IC50,SF-295,30.2 µM
same,IC (TGI),SF-295,32.4 µM
same,CC50,SF-295,63.1 µM
same,GI50,SNB-19,11.7 µM
same,IC50,SNB-19,21.4 µM
same,IC (TGI),SNB-19,24 µM
same,CC50,SNB-19,49 µM
same,GI50,SNB-75,1.78 µM
same,IC50,SNB-75,6.61 µM
same,IC (TGI),SNB-75,7.24 µM
same,CC50,SNB-75,27.5 µM
same,GI50,SK-MEL-2,10 µM
same,IC50,SK-MEL-2,21.9 µM
same,IC (TGI),SK-MEL-2,22.4 µM
same,CC50,SK-MEL-2,51.3 µM
same,GI50,UACC-257,8.51 µM
same,IC50,UACC-257,19.5 µM
same,IC (TGI),UACC-257,21.9 µM
same,CC50,UACC-257,49 µM
same,GI50,UACC-62,8.13 µM
same,IC50,UACC-62,15.8 µM
same,IC (TGI),UACC-62,20.4 µM
same,CC50,UACC-62,45.7 µM
same,GI50,OVCAR-5,15.8 µM
same,IC50,OVCAR-5,29.5 µM
same,IC (TGI),OVCAR-5,32.4 µM
same,CC50,OVCAR-5,66.1 µM
same,GI50,OVCAR-8,11.5 µM
same,IC50,OVCAR-8,19.1 µM
same,IC (TGI),OVCAR-8,26.3 µM
same,CC50,OVCAR-8,61.7 µM
same,GI50,NCI/ADR-RES,15.1 µM
same,IC50,NCI/ADR-RES,27.5 µM
same,IC (TGI),NCI/ADR-RES,33.9 µM
same,CC50,NCI/ADR-RES,74.1 µM
same,GI50,SK-OV-3,17 µM
same,IC50,SK-OV-3,32.4 µM
same,IC (TGI),SK-OV-3,32.4 µM
same,CC50,SK-OV-3,61.7 µM
same,GI50,RXF 393,7.94 µM
same,IC50,RXF 393,24.5 µM
same,IC (TGI),RXF 393,22.4 µM
same,CC50,RXF 393,55 µM
same,GI50,PC-3,5.5 µM
same,IC50,PC-3,9.55 µM
same,IC (TGI),PC-3,20.9 µM
same,CC50,PC-3,58.9 µM
same,GI50,DU-145,1.78 µM
same,IC50,DU-145,3.09 µM
same,IC (TGI),DU-145,3.24 µM
same,CC50,DU-145,5.89 µM
FC(F)(F)c1cc2c(Cl)ncnc2n1CCC1CCOCC1 [NUCC-0226674],IC50,[1]; [2],1.29 µM
same,IC50,[1]; [3],< 2 µM
same,growth inhibition in the One-Dose Screen,full NCI 60 cell panel,significant growth inhibition
same,GI50,EKVX; five-dose,12.6 µM
same,IC50,EKVX; five-dose,25.7 µM
same,IC (TGI),EKVX; five-dose,28.2 µM
same,CC50,EKVX; five-dose,64.6 µM
same,GI50,HCT-116; five-dose,2.34 µM
same,IC50,HCT-116; five-dose,3.24 µM
same,IC (TGI),HCT-116; five-dose,6.46 µM
same,CC50,HCT-116; five-dose,28.8 µM
same,GI50,"HT29; HT-29, five-dose",13.8 µM
same,IC50,"HT29; HT-29, five-dose",21.4 µM
same,IC (TGI),"HT29; HT-29, five-dose",44.7 µM
same,CC50,"HT29; HT-29, five-dose, read-out: LC50 (the source's name) (converted)",≥ 100 µM
same,GI50,KM12; five-dose,16.2 µM
same,IC50,KM12; five-dose,28.2 µM
same,IC (TGI),KM12; five-dose,33.9 µM
same,CC50,KM12; five-dose,70.8 µM
same,GI50,SF-268; five-dose,2.45 µM
same,IC50,SF-268; five-dose,4.57 µM
same,IC (TGI),SF-268; five-dose,7.24 µM
same,CC50,SF-268; five-dose,44.7 µM
same,GI50,SF-295; five-dose,13.8 µM
same,IC50,SF-295; five-dose,25.1 µM
same,IC (TGI),SF-295; five-dose,27.5 µM
same,CC50,SF-295; five-dose,56.2 µM
same,GI50,SNB-19; five-dose,5.25 µM
same,IC50,SNB-19; five-dose,12.3 µM
same,IC (TGI),SNB-19; five-dose,18.2 µM
same,CC50,SNB-19; five-dose,43.7 µM
same,GI50,SNB-75; five-dose,3.09 µM
same,IC50,SNB-75; five-dose,15.5 µM
same,IC (TGI),SNB-75; five-dose,15.1 µM
same,CC50,SNB-75; five-dose,39.8 µM
same,GI50,SK-MEL-2; five-dose,13.2 µM
same,IC50,SK-MEL-2; five-dose,29.5 µM
same,IC (TGI),SK-MEL-2; five-dose,28.2 µM
same,CC50,SK-MEL-2; five-dose,60.3 µM
same,GI50,UACC-257; five-dose,3.55 µM
same,IC50,UACC-257; five-dose,9.33 µM
same,IC (TGI),UACC-257; five-dose,15.5 µM
same,CC50,UACC-257; five-dose,52.5 µM
same,GI50,UACC-62; five-dose,4.27 µM
same,IC50,UACC-62; five-dose,8.13 µM
same,IC (TGI),UACC-62; five-dose,15.8 µM
same,CC50,UACC-62; five-dose,40.7 µM
same,GI50,OVCAR-5; five-dose,24 µM
same,IC50,OVCAR-5; five-dose,45.7 µM
same,IC (TGI),OVCAR-5; five-dose,81.3 µM
same,CC50,OVCAR-5; five-dose,≥ 100 µM
same,GI50,OVCAR-8; five-dose,2.45 µM
same,IC50,OVCAR-8; five-dose,3.63 µM
same,IC (TGI),OVCAR-8; five-dose,7.41 µM
same,CC50,OVCAR-8; five-dose,63.1 µM
same,GI50,NCI/ADR-RES; five-dose,17 µM
same,IC50,NCI/ADR-RES; five-dose,30.9 µM
same,IC (TGI),NCI/ADR-RES; five-dose,35.5 µM
same,CC50,NCI/ADR-RES; five-dose,72.4 µM
same,GI50,SK-OV-3; five-dose,17.4 µM
same,IC50,SK-OV-3; five-dose,33.1 µM
same,IC (TGI),SK-OV-3; five-dose,33.1 µM
same,CC50,SK-OV-3; five-dose,64.6 µM
same,GI50,RXF 393; five-dose,8.71 µM
same,IC50,RXF 393; five-dose,24 µM
same,IC (TGI),RXF 393; five-dose,21.9 µM
same,CC50,RXF 393; five-dose,51.3 µM
same,GI50,PC-3; five-dose,2.95 µM
same,IC50,PC-3; five-dose,4.27 µM
same,IC (TGI),PC-3; five-dose,11.2 µM
same,CC50,PC-3; five-dose,45.7 µM
same,GI50,DU-145; five-dose,4.37 µM
same,IC50,DU-145; five-dose,7.24 µM
same,IC (TGI),DU-145; five-dose,15.1 µM
same,CC50,DU-145; five-dose,39.8 µM
